From patent US4005076A, “Hydrazones of 3-formylrifamycin SV” (Gruppo Lepetit S.p.A., priority 1971, dated 1977)
Values after ≈ are worked out from the molar mass of the structure shown. Like-named read-outs stand apart in the source and are kept apart here.

Assays:
[1] = test system: Staphylococcus aureus strain which is resistant to rifampicin (Staph. aureus Tour); experiment: in vitro minimal inhibitory concentration against rifampicin-resistant Staphylococcus aureus strain; assay type: cell-based; conditions: for MIC: Staphylococcus aureus, read-out: Minimal inhibitory concentration
Method: In particular, compounds illustrative of the invention at concentrations of about 10 to 20 μg/ml or less inhibit the growth of a Staph. aureus Tour strain resistant to rifampicin.
One of the most important characteristics of the new hydrazones is their activity against rifampicin-resistant Staphylococcus aureus strains. Rifampicin, that is 3-(4-methyl-1-piperazinyl)iminomethylrifamycin SV, disclosed in U.S. Pat. No. 3,342,810, is the most known and widely used rifamycin derivative in therapeutic practice.
The data of the new compounds are compared with those of representative hydrazones disclosed in U.S. Pat. No. 3,342,810.

[2] = molecular target: T1, RNA-dependent DNA polymerase of murine sarcoma virus (Moloney murine leukemia virus, UniProt P03355); experiment: inhibition of RNA-dependent DNA polymerase of murine sarcoma virus (3H-dTTP incorporation); assay type: biochemical; conditions: at a concentration of 2-100 μg/ml or less; 60 min
T1 construct: The virion polymerase was purified 20-40 fold; made in house; host or cells: virions from MSV (Moloney) transformed rat 78A1 cells and MSV (Harvey) transformed mouse MEH cells; disrupted virus or polymerase purified 20-40 fold
Method: The inhibiting activity of the inventive compounds has been tested on RNA-dependent DNA polymerase of murine sarcoma virus (endogenous) and RNA-dependent DNA polymerase activity of purified enzymes. The inhibition was tested according to the methods described by C. Gurgo et al., Nature, New Biology, 229, 111, 1971. The effect of different concentrations of drugs on polymerase activity was determined by following ^3 H-dTTP (tritiated thymine deoxyriboside triphosphate) incorporation into the insoluble fraction. A typical example of the experimental procedures is the following.
Virus was isolated and purified from murine sarcoma virus (Moloney isolate) transformed rat cells (78Al cells) and murine sarcoma virus (Harvey isolate) transformed mouse cells (MEH cells) as previously described (Green et al., Proc. Nat. Acad. Sci. USA 67, 385-393, 1970, Rokutanda et al., Nature, 227, 1026-1028, 1970). The virion polymerase was purified 20-40 fold by incubation of purified virus with 0.5% NP-40 (nonidet P-40) in 0.1 M NaCl, 0.01 M Tris buffer (pH 7.6), 0.001 M EDTA for 5 minutes at room temperature and zonal centrifugation in 15-30% sucrose gradients in 10 mM sodium phosphate buffer (pH 7.4), 2.5 mM MgCl2, 10 mM dithiothreitol, and 5% glycerol for 24 hours at 38,000 rpm in a Spinco SW41 rotor. The peak fractions of enzyme activity (13-17) of 22 fractions collected, were pooled and stored at -70° C. in 30% glycerol.
Enzyme incubation was performed for 1 hour at 37° C. in 100 μl of reaction mixture containing 40 mM Tris buffer (pH 8.0), 5 mM dithiothreitol, 30 mM NaCl, 2.5 mM MgCl2, 0.1 mM dATP, dGTP, dCTP, and 10 μCi of ^3 H-dTTP (12-18 Ci/mmole) as described by Green et al. in Proc. Nat. Acad. Sci. USA 67, 385-393, 1970. The reaction was terminated by the addition of 150 μl of 1N perchloric acid. Calf thymus DNA (100 μg) was added as carrier; the radioactive DNA product was processed as described in the two papers mentioned above. Endogenous RNA-dependent DNA-polymerase activity was measured after the addition of 0.01% NP-40 to purified virus at the time of assay. The DNA-polymerase activity of purified viral polymerase was measured with 2 μg of poly d (A-T) as template and no NP-40.
Rifamycin derivatives of this invention were dissolved in dimethylsulfoxide (DMSO) at a concentration of 5 mg/ml and stored at 4° C. Inhibition of the endogenous RNA-dependent DNA-polymerase activity was tested by adding 2 μl of derivative appropriately diluted in DMSO or 2 μl of DMSO (control) to the assay mixture prior to addition to disrupted virus which contained 15 to 30 μg of viral protein. Enzyme incubation was performed for 60 minutes at 37° C. Inhibition of purified enzyme was tested by pre-incubation of 2 μl of derivative or DMSO with 30 μl of enzyme (1 to 2 μg of protein) for 10 minutes at 37° C.; then 70 μl of substrate mixture were added and the mixture further incubated and processed as described above.

[3] = molecular target: T2, sarcoma virus DNA-polymerases (SSV-DNA-P) (Woolly monkey sarcoma virus, UniProt P03359); experiment: effect on activity of SSV-polymerase; assay type: biochemical
T2 construct: sarcoma virus DNA-polymerases (SSV-DNA-P)
Text: Templates used in the Enzymatic Assays were the following: SSV-DNA-P: […]

[4] = test system: mouse embryo DNA-polymerase I (ME-DNA-P1); experiment: effect on mouse embryo DNA-polymerase I; assay type: biochemical; conditions: activated Calf-Thymus DNA
Text: (§1) Oligo dT.Poly rA. ME-DNA-P1 and ME-DNA-p2 : activated

[5] = test system: mouse embryo DNA-polymerase II (ME-DNA-P2); experiment: effect on mouse embryo DNA-polymerase II; assay type: biochemical; conditions: activated Calf-Thymus DNA
Text: as §1

[6] = molecular target: T3, mouse embryo RNA-polymerase I (ME-RNA-P1) (Mus musculus, UniProt O35134+P70700); experiment: effect on mouse embryo RNA-polymerase I; assay type: biochemical; conditions: for remaining activity at 10 µg: read-out: % Control Activity of ME-RNA-P1 at 10μg; for remaining activity at 100 µg: read-out: % Control Activity of ME-RNA-P1 at 100μg
T3 construct: mouse embryo RNA-polymerase I (ME-RNA-P1); endogenous in cells; host or cells: mouse embryo cells
Text: (§2) Calf-Thymus DNA. Me-RNA-P1 and ME-RNA-P2 : Single Stranded

[7] = molecular target: T4, mouse embryo RNA-polymerase II (ME-RNA-P2) (Mus musculus, UniProt P08775+Q8CFI7); experiment: effect on mouse embryo RNA-polymerase II; assay type: biochemical; conditions: for remaining activity at 10 µg: read-out: % Control Activity of ME-RNA-P2 at 10μg; for remaining activity at 100 µg: read-out: % Control Activity of ME-RNA-P2 at 100μg
T4 construct: mouse embryo RNA-polymerase II (ME-RNA-P2); endogenous in cells; host or cells: mouse embryo cells
Text: as §2

[8] = test system: tumor virus polymerases; experiment: inhibition of tumor virus polymerases, native template; assay type: biochemical; conditions: about 5 μg/ml
Method: (§3) DNA polymerase assays were carried out in a final volume of 100 μl. The assay mixture contained Tris-HCl buffer, pH 8.3, 50 mM; MgAc, 6.0 mM; dithiothreitol, 8.0 mM; NaCl, 60 mM. Adjustment of pH was carried out after addition of inhibitors which were previously dissolved in dimethylsulfoxide (DMSO). The final concentration of DMSO was 0.5% and all control samples included this amount of DMSO. An enzyme concentration that catalyzes an incorporation of approximately 1.0 pmole/hr was used in the assay. The enzyme was in most cases preincubated for 5 minutes with the inhibitor. […]
(§4) In these cases, reactions were initiated by adding enzyme to the complete reaction mixture, which included the inhibitor. […] The products were collected on Millipore filter, washed extensively with 5% TCA and 1 ml. of DMSO-ethanol 0.1 M NaCl mixture (0.5:70:29.5), dried and counted in 2 ml. of BBS3 (Beckman) and 10 ml. of liquifluor (New England Nuclear) in a Packard liquid scintillation counter.

[9] = test system: normal polymerases; experiment: effect on normal polymerases, native template; assay type: biochemical; conditions: about 5 μg/ml
Method: as §3, §4

[10] = 10μg, template Oligo dT.Poly rA
[11] = 100μg, template Oligo dT.Poly rA
[12] = 10μg, Single Stranded Calf-Thymus DNA
[13] = 100μg, Single Stranded Calf-Thymus DNA

T2 sequence (P03359 642-1310): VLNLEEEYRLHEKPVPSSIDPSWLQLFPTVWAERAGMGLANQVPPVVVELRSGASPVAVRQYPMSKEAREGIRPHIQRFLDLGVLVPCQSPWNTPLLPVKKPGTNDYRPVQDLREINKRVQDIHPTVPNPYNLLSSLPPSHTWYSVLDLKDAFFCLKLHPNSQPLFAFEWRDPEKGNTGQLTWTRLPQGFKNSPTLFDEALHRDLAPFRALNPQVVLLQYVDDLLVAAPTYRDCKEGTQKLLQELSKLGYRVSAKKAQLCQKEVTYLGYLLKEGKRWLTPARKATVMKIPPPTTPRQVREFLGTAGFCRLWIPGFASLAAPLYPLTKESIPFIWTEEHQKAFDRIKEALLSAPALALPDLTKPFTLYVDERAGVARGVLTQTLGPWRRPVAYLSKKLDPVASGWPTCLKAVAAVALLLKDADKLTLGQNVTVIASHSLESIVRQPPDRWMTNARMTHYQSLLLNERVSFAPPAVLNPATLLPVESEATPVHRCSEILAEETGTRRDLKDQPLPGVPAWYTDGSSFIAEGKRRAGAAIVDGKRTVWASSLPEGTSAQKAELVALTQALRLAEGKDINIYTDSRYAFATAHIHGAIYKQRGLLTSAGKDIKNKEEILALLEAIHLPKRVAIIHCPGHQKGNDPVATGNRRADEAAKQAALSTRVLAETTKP

COC1C=COC2(C)Oc3c(C)c(O)c4c(O)c(c(C=NNC5CCCCCCC5)c(O)c4c3C2=O)NC(=O)C(C)=CC=CC(C)C(O)C(C)C(O)C(C)C(OC(C)=O)C1C (stereo not shown) [Example 14]
MIC [1]: 5 µg/mL (≈ 5.88 µM)
incorporation of H3-dTTP relative to that found in the control tests [2]: less than 10%

COC1C=COC2(C)Oc3c(C)c(O)c4c(O)c(c(C=NN5CCN(C)CC5)c(O)c4c3C2=O)NC(=O)C(C)=CC=CC(C)C(O)C(C)C(O)C(C)C(OC(C)=O)C1C (stereo not shown) [Rifampicin, 3-(4-methyl-1-piperazinyl)iminomethylrifamycin SV]
MIC [1]: > 100 µg/mL
Minimal inhibitory concentration ([1]; in vitro, Staphylococcus aureus strain resistant to rifampicin): > 100 µg/mL
% Control Activity of SSV-DNA-P at 5μg [3]: 94%
% Control Activity of SSV-DNA-P at 10μg [3]: 97%
% Control Activity of SSV-DNA-P at 100μg [3]: 96%
% Control Activity of ME-DNA-P1 at 10μg [4]: 99%
% Control Activity of ME-DNA-P1 at 100μg [4]: 56%
% Control Activity of ME-DNA-P2 at 10μg [5]: 96%
% Control Activity of ME-DNA-P2 at 100μg [5]: 16%
remaining activity at 10 µg [6]: 77.7%
remaining activity at 100 µg [6]: 86%
remaining activity at 10 µg [7]: 81%
remaining activity at 100 µg [7]: 99%

COC1C=COC2(C)Oc3c(C)c(O)c4c(O)c(c(C=NNC5CCCCCC5)c(O)c4c3C2=O)NC(=O)C(C)=CC=CC(C)C(O)C(C)C(O)C(C)C(OC(C)=O)C1C (stereo not shown) [Example 13]
MIC [1]: 10 µg/mL (≈ 12 µM)
incorporation of H3-dTTP relative to that found in the control tests [2]: less than 10%

CO[C@H]1/C=C/O[C@@]2(C)Oc3c(C)c(O)c4c(O)c(cc(O)c4c3C2=O)NC(=O)/C(C)=C\C=C\[C@H](C)[C@H](O)[C@@H](C)[C@@H](O)[C@@H](C)[C@H](OC(C)=O)[C@@H]1C [rifamycin SV]
% Control Activity of SSV-DNA-P at 5μg ([3]; 5μg, template Oligo dT.Poly rA): 105%
% Control Activity of SSV-DNA-P at 10μg [3, 10]: 75%
% Control Activity of SSV-DNA-P at 100μg [3, 11]: 61%
% Control Activity of ME-DNA-P1 at 5μg [4]: 91%
% Control Activity of ME-DNA-P1 at 10μg [4]: 95%
% Control Activity of ME-DNA-P1 at 100μg [4]: 105%
% Control Activity of ME-DNA-P2 at 5μg [5]: 94%
% Control Activity of ME-DNA-P2 at 10μg [5]: 100%
% Control Activity of ME-DNA-P2 at 100μg [5]: 72%
remaining activity at 10 µg [6, 12]: 84%
remaining activity at 100 µg [6, 13]: 106%
remaining activity at 5 µg ([7]; 5μg, Single Stranded Calf-Thymus DNA, read-out: % Control Activity of ME-RNA-P2 at 5μg): 89%
remaining activity at 10 µg [7, 12]: 87%
remaining activity at 100 µg [7, 13]: 82%

COC1C=COC2(C)Oc3c(C)c(O)c4c(O)c(c(C=NN(c5ccccc5)c5ccccc5)c(O)c4c3C2=O)NC(=O)C(C)=CC=CC(C)C(O)C(C)C(O)C(C)C(OC(C)=O)C1C (stereo not shown) [Example 11]
MIC [1]: 2 µg/mL (≈ 2.24 µM)
incorporation of H3-dTTP relative to that found in the control tests [2]: less than 10%

COC1C=COC2(C)Oc3c(C)c(O)c4c(O)c(c(C=NNc5ccc([N+](=O)[O-])cc5[N+](=O)[O-])c(O)c4c3C2=O)NC(=O)C(C)=CC=CC(C)C(O)C(C)C(O)C(C)C(OC(C)=O)C1C (stereo not shown) [Example 12]
MIC [1]: 10 µg/mL (≈ 11 µM)
incorporation of H3-dTTP relative to that found in the control tests [2]: less than 10%
inhibition of tumor virus polymerases [8]: 44%
activity on normal polymerases [9]: practically inactive
% Control Activity of SSV-DNA-P at 5μg ([3]; 5μg, template Oligo dT.Poly rA): 44%
% Control Activity of SSV-DNA-P at 10μg [3, 10]: 34%
% Control Activity of SSV-DNA-P at 100μg [3, 11]: 1%
% Control Activity of ME-DNA-P1 at 5μg [4]: 102%
% Control Activity of ME-DNA-P1 at 10μg [4]: 83%
% Control Activity of ME-DNA-P1 at 100μg [4]: 11%
% Control Activity of ME-DNA-P2 at 5μg [5]: 72%
% Control Activity of ME-DNA-P2 at 10μg [5]: 83%
% Control Activity of ME-DNA-P2 at 100μg [5]: 46%
remaining activity at 10 µg [6]: 115%
remaining activity at 100 µg [6]: 100%
remaining activity at 10 µg [7]: 92%
remaining activity at 100 µg [7]: 72%

COC1C=COC2(C)Oc3c(C)c(O)c4c(O)c(c(C=NN(Cc5ccccc5)c5ccccc5)c(O)c4c3C2=O)NC(=O)C(C)=CC=CC(C)C(O)C(C)C(O)C(C)C(OC(C)=O)C1C (stereo not shown) [Example 15]
MIC [1]: 2 µg/mL (≈ 2.21 µM)
incorporation of H3-dTTP relative to that found in the control tests [2]: less than 10%
